One experiment concerns the target T1, 5-HT1A receptor (Rattus norvegicus, UniProt P19327).
T1 sequence (P19327 1-422): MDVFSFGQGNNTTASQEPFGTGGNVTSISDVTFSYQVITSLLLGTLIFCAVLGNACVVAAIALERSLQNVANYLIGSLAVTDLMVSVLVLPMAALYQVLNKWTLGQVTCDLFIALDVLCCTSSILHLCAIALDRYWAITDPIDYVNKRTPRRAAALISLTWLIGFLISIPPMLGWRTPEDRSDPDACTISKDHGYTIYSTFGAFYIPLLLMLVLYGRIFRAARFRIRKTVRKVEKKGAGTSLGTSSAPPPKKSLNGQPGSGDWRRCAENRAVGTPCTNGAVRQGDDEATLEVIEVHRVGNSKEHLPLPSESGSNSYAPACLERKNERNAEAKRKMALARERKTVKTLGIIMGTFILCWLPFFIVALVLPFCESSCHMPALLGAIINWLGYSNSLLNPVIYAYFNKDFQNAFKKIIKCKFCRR
Description: biochemical. Details: 47: 529-540 (1986); from tissue; host or cells: brain tissue, inferred from the cited method (rat frontal cortex). Conditions: for Ratio 5-HT1A /σ / IC50: Table 5; for IC50: read-out: 5-HT1A IC50. Format: binding. As to the method: Further sigma receptor binding assays against [^3 H]DTG and 5HT-1A binding assays were conducted according to the procedure outlined in the previous examples.

The target in another experiment is T2, sigma-2 binding site (Cavia porcellus, UniProt H0V073).
T2 construct: Guinea pig whole membrane preparations (P2 microsomal fraction); from tissue; host or cells: guinea pig membranes (P2 microsomal fraction), as described by Weber et al; brain inferred from the sister test b489
T2 sequence (H0V073 1-176): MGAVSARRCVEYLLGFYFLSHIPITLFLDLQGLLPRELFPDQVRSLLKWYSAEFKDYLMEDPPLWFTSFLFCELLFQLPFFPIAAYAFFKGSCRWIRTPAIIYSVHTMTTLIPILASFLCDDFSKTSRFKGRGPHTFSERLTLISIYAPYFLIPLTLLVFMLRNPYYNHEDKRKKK
In words: biochemical. Also on record: species or system guinea pig. Conditions: for IC50: Table 17, read-out: IC50 (nM) at sigma-2.

A further experiment has as its target T3, sigma-1 binding site (Cavia porcellus, UniProt Q60492).
T3 construct: Guinea pig whole membrane preparations (P2 microsomal fraction); from tissue; host or cells: guinea pig membranes (P2 microsomal fraction), as described by Weber et al; brain inferred from the sister test b489
In words: biochemical. Also on record: species or system guinea pig. The following applies: for Ki / S1/S2 Ratio: Table 10; for Ki: read-out: SIGMA-1 KI vs. 3H-PENTAZOCINE MEAN; for S1/S2 Ratio: sigma-1/sigma-2; for IC50 ratio of sigma-1/sigma-2 (sigma-1 selective compounds): less than about 0.1, see Table 10. As to the method: [^3 H]DTG was purchased from DuPont/NEN.
The radioactivity on the filters was determined by scintillation spectrometry at an efficiency of about 50% using Cytoscint (ICN) scintillation fluid.

The target of the next experiment is PCP receptor. In words: PCP receptor binding, ^3 H-MK-801. Details: species or system rat. The following applies: Table 4. How it is done: PCP receptor binding assays against ^3 H-MK-801 were conducted as described by Keana et al., Proc. Natl. Acad. Sci (USA) 86: 5631-5635 (1989); Keana et al., Life Sciences 43: 965-973 (1988). For (+) ^3 H-MK-801 binding, 1 nM of radioligand was incubated with about 100 ug of thawed rat brain membrane protein for 4 hr at room temperature. The assays were carried out in 5 mM Tris/acetate and were stopped by rapid filtration through Whatman GF/B or Schleicher & Schuell no. 32 glass fiber filters (presoaked in 0.05% polyethylenamine).

A further experiment concerns sigma receptor. In words: Sigma receptor binding, [^3 H]DTG, brain membranes (both sigma-1 and sigma-2 sites). Details: species or system guinea pig. The following applies: Examples 5 and 6; [^3 H]DTG.
The mark [1] stands for this setting: Table 10, read-out: SIGMA-2 KI vs. 3H-DTG + PENTAZOCINE MEAN.
[2] abbreviates: Table 12, read-out: IC50 (nM) at sigma-1.
The mark [3] stands for this setting: Table 13, read-out: Sigma-1 IC50.

Where two headings read alike, the source gives them in different places.

Data on 24 compounds can be found in patent publication US6057371A, “Sigma receptor ligands and the use thereof” (Virginia Commonwealth University, priority 1992, dated 2000).

The term IC50 denotes the concentration needed to halve the response being measured.

T3 sequence (Q60492 whole entry): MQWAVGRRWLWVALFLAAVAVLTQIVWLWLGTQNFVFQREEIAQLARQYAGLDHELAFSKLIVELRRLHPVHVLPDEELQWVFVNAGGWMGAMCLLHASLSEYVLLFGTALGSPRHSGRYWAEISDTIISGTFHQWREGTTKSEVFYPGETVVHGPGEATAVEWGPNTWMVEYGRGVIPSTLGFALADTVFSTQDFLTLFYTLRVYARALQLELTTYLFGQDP
Description for sigma-2 binding site: For the standard equilibrium assay, the mixtures were incubated for 30 min. at room temperature, then filtered and the radioactivity determined as described above.

Take `CC(Cc1ccccc1)NCCCCc1ccccc1` (racemic) [Compound 10, (±) N-(1-phenyl-2-propyl)-4-phenylbutylamine]: the “Ratio 5-HT1A /σ” value on 5-HT1A receptor was found to be 22. In addition, the IC50 on 5-HT1A receptor is 212 nM; on sigma-1 binding site (Table 14, read-out: IC50 (nM) at sigma-1) it was 4.7 nM; on PCP receptor, more than 10000 nM. Besides, the Ki at sigma-2 binding site (setting [1]) amounted to 53.2 nM; on sigma-1 binding site, 4.68 nM. For the same compound, the “change in sigma-1 affinity vs. compound No. 1, words” value at sigma-1 binding site (Example 8) was “doubles affinity”. The “S1/S2 Ratio” value at sigma-1 binding site was 0.088. Further, the “IC50 ratio of sigma-1/sigma-2 (sigma-1 selective compounds)” value on sigma-1 binding site was “less than 0.1”.
In the case of `CC(Cc1cccc2ccccc12)NCCCc1ccccc1` (racemic) [Compound 16, (±) N-[1-(1'-Naphthyl)-2-propyl]-3-phenylpropylamine], the 50% inhibitory concentration (IC50) on 5-HT1A receptor is 44.8 nM; on PCP receptor it was more than 10000 nM. Moreover, the Ki on sigma-2 binding site (Example 9, read-out: sigma-2 binding affinity) turned out to be 150 nM; on sigma-2 binding site (setting [1]) it was 152 nM.
On to `CC(Cc1ccc2ccccc2c1)NCCCc1ccccc1` (racemic) [Compound 17, (±) N-[1-(2'-Naphthyl)-2-propyl]-3-phenylpropylamine], for which the IC50 was 87.8 nM on 5-HT1A receptor and more than 10000 nM at PCP receptor. In addition, the Ki on sigma-2 binding site (setting [1]) worked out at 222 nM.
With `CC(Cc1cccc(Br)c1)NCCCc1ccccc1` (racemic) [Compound 20, (±) N-[1-(3'-Bromophenyl)-2-propyl]-3-phenylpropylamine], at 5-HT1A receptor, the “Ratio 5-HT1A /σ” value is 17. Also, the concentration for half-maximal inhibition (IC50) at 5-HT1A receptor was 108 nM; on sigma-2 binding site it was 26 nM; on sigma-1 binding site (setting [2]), 9.6 nM; on PCP receptor, more than 10000 nM. The Ki came to 26.1 nM at sigma-2 binding site (setting [1]) and 9.65 nM at sigma-1 binding site. Besides, the “S1/S2 Ratio” value on sigma-1 binding site is 0.369.
Take `CC(Cc1ccc(Br)cc1)NCCCc1ccccc1` (racemic) [Compound 21, (±) N-[1-(4'-Bromophenyl)-2-propyl]-3-phenylpropylamine]: the IC50 was 195 nM at 5-HT1A receptor, 39 nM at sigma-2 binding site and more than 10000 nM at PCP receptor. Moreover, the Ki at sigma-2 binding site (setting [1]) amounted to 39.1 nM.
`CC(Cc1cccc(C(F)(F)F)c1)NCCCc1ccccc1` (racemic) [Compound 23, (±) N-[1-(3'-Trifluoromethyl)-2-propyl]-3-phenylpropylamine]: the “Ratio 5-HT1A /σ” value on 5-HT1A receptor worked out at 25. Further, the IC50 at 5-HT1A receptor was 106 nM; on sigma-2 binding site it was 21 nM; on sigma-1 binding site (setting [2]), 8.8 nM; at PCP receptor it was more than 10000 nM. Besides, the Ki at sigma-2 binding site (setting [1]) came to 20.8 nM; on sigma-1 binding site, 8.75 nM. Further, the “S1/S2 Ratio” value on sigma-1 binding site is 0.420.
For the compound `CCCC(N)Cc1ccccc1` (racemic) [Compound 34, (±) 1-Phenyl-2-aminopentane], the “Ratio 5-HT1A /σ” value on 5-HT1A receptor was determined as 2.6. The results for the IC50 at 5-HT1A receptor and on PCP receptor were 6650 nM and more than 10000 nM, respectively. In addition, the Ki on sigma-2 binding site (setting [1]) stood at 10300 nM; at sigma-1 binding site, 1180 nM. At sigma-1 binding site, the “S1/S2 Ratio” value worked out at 0.115.
`C[C@H](Cc1ccccc1)NCCOc1ccccc1` [Compound 8]: on 5-HT1A receptor, the “Ratio 5-HT1A /σ” value is given as “.92”. The half-inhibitory concentration (IC50) on 5-HT1A receptor was 43.6 nM; on PCP receptor, more than 10000 nM. Moreover, in the experiment with sigma receptor, the “change in sigma receptor affinity vs. analog” value is on record as “about 7 fold”.
Consider `C[C@H](Cc1ccccc1)NCCCc1cccc2ccccc12` [Compound 11, R(-) N-(1-phenyl-2-propyl)-3-(1-naphthyl)propylamine], for which the “Ratio 5-HT1A /σ” value at 5-HT1A receptor is listed as 11. In addition, the results for the IC50 on 5-HT1A receptor, at sigma-1 binding site (setting [3]) and at PCP receptor were 104 nM, 8.6 nM and more than 10000 nM, respectively. For the same compound, at sigma-2 binding site (Example 9), the “reduction in sigma-2 affinity vs. cmp. #1” value is “about 4 fold”.
Regarding `C[C@H](Cc1ccccc1)NCCCc1ccc2ccccc2c1` [Compound 12, R(-) N-(1-phenyl-2-propyl)-3-(2-naphthyl)propylamine], the “Ratio 5-HT1A /σ” value on 5-HT1A receptor amounted to 56. Also, the IC50 at 5-HT1A receptor was 132 nM; on sigma-1 binding site (setting [3]) it was 5.7 nM; on PCP receptor, more than 10000 nM. The “reduction in sigma-2 affinity vs. cmp. #1” value on sigma-2 binding site (Example 9) is listed as “about 4 fold”. The Ki on sigma-2 binding site (setting [1]) came out at 258 nM; on sigma-1 binding site it was 5.73 nM. Also, the “S1/S2 Ratio” value on sigma-1 binding site stood at 0.022. Moreover, the “IC50 ratio of sigma-1/sigma-2 (sigma-1 selective compounds)” value at sigma-1 binding site is listed as “less than 0.1”.
With `CC(Cc1ccc2ccccc2c1)NCCCc1ccccc1` (stereo not shown) [Compound 18, N-(3-phenylpropyl)-1-(2-naphthyl)-2-propylamine], the IC50 was 588 nM on 5-HT1A receptor and more than 10000 nM on PCP receptor. The Ki on sigma-2 binding site (setting [1]) was found to be 15.1 nM.
`c1ccc(CCCNC2CCc3ccccc3C2)cc1` (stereo not shown) [Compound 31]: on 5-HT1A receptor, the “Ratio 5-HT1A /σ” value is recorded as “.92” and the IC50 came out at 19.3 nM. Moreover, the IC50 on PCP receptor was more than 10000 nM.
Regarding `Clc1cccc(N2CCN(CCc3ccccc3)CC2)c1` [Compound 32, 1-(3'-Chlorophenyl)-4-(2-phenylethyl)piperazine], the “Ratio 5-HT1A /σ” value at 5-HT1A receptor is on record as “.80”. The IC50 at 5-HT1A receptor was 8.73 nM; at PCP receptor it was more than 10000 nM. Besides, the figures for the Ki on sigma-2 binding site (setting [1]) and at sigma-1 binding site were 42.4 nM and 14.9 nM, respectively. In addition, the “S1/S2 Ratio” value on sigma-1 binding site stood at 0.352.
On to `Clc1cccc(N2CCN(CCCc3ccccc3)CC2)c1` [Compound 33], for which, at 5-HT1A receptor, the “Ratio 5-HT1A /σ” value turned out to be 2.6 and the half-maximal inhibitory concentration (IC50) came to 51.6 nM. The compound further displayed an IC50 at PCP receptor of more than 10000 nM.
On to `c1ccc(CN2CCOC(c3ccccc3)C2)cc1` (stereo not shown) [Compound 35], for which, on 5-HT1A receptor, the “Ratio 5-HT1A /σ” value was 40 and the concentration for half-maximal inhibition (IC50) turned out to be 10400 nM. The IC50 at PCP receptor is more than 10000 nM.
In the case of `FC(F)(F)c1cccc(N2CCN(CCc3ccccc3)CC2)c1` [Compound 37], at 5-HT1A receptor, the “Ratio 5-HT1A /σ” value is on record as 2.6 and the IC50 worked out at 20.3 nM. At PCP receptor, the IC50 is more than 10000 nM.
Consider `Clc1ccc(C2=CCN(CCCCc3ccccc3)CC2)cc1` [Compound 38], for which, on 5-HT1A receptor, the “Ratio 5-HT1A /σ” value is 25 and the IC50 was 107 nM. On PCP receptor, the IC50 was more than 10000 nM.
Taken in the same sequence, the figures for `c1ccc(CCCN2CCC(c3ccccc3)CC2)cc1` [Compound 39] were 75, 89.6 nM and more than 10000 nM.
`C[C@@H](Cc1ccccc1)NCCCc1ccc2ccccc2c1` [Compound 42]: at 5-HT1A receptor, the “Ratio 5-HT1A /σ” value stood at 110 and the half-inhibitory concentration (IC50) was 572 nM. The IC50 at PCP receptor was more than 10000 nM.
On to `C[C@@H](Cc1ccccc1)NCCCc1ccccc1` [Compound 43, N-(3-phenylpropyl)-1-pheny1-2-propylamine], for which the “5-HT1A affinity relative to antipode” value at 5-HT1A receptor (S(+) isomer of cmp. #1) is on record as “only one-tenth the affinity of its antipode”. Also, the IC50 at 5-HT1A receptor was 1110 nM; at PCP receptor it was more than 10000 nM. Besides, on sigma-2 binding site (setting [1]), the Ki is 37.5 nM.
Consider `c1ccc(CCCN2CCN(c3ccccc3)CC2)cc1` [Compound 46], for which the “Ratio 5-HT1A /σ” value on 5-HT1A receptor is given as 3. For the same compound, the IC50 on 5-HT1A receptor was 21.5 nM; at PCP receptor, more than 10000 nM.
Take `FC(F)(F)c1cccc(N2CCN(CCCCc3ccccc3)CC2)c1` [Compound 47]: on 5-HT1A receptor, the “Ratio 5-HT1A /σ” value turned out to be 1.6 and the IC50 is 9.23 nM. Further, on PCP receptor, the IC50 was more than 10000 nM.
For `c1ccc(CCCCN2CCN(c3ccccc3)CC2)cc1` [Compound 48], in that order: 2.3, 6.3 nM and more than 10000 nM.
Taken in the same sequence, the figures for `c1ccc(CCCN2CCN(c3ccc4ccccc4c3)CC2)cc1` [Compound 50] were 94, 282 nM and more than 10000 nM.
